{"source": "paper PMC3598492", "about": "“Cannabinoid receptor type 2 (CB2)-selective N-aryl-oxadiazolyl-propionamides: synthesis, radiolabelling, molecular modelling and biological evaluation” (Organic and Medicinal Chemistry Letters, 2012)", "key": {"hCB2": {"target": "T1, hCB2 (Homo sapiens, UniProt P34972)", "T1 construct": "host or cells: CHO (hCB2-CHO), crude membrane homogenates", "T1 sequence (P34972 whole entry)": "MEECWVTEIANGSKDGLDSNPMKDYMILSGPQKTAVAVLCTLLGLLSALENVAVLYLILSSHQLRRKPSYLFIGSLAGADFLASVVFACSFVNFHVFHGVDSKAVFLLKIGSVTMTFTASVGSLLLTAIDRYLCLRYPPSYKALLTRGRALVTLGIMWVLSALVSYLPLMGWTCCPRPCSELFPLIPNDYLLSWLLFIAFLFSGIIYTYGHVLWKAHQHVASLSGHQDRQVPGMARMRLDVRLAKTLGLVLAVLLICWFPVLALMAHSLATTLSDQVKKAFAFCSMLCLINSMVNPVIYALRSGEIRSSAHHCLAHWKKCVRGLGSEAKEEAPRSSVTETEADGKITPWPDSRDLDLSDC", "experiment": "Competitive [3H]CP55,940 binding on membrane homogenates of hCB2-CHO cells", "conditions": "for Binding to hCB2 in words: hCB2-CHO; for Selectivity over hCB1 / Selectivity, pKi (CB2) – pKi (CB1): hCB2 versus hCB1; for Selectivity, pKi (CB2) – pKi (CB1): pKi = -log (Ki)", "protocol": "(§1) CHO cell lines stably transfected with human CB1 (hCB1-CHO; obtained from Euroscreen, Gosselies, Belgium) or human CB2 (hCB2-CHO; obtained from Paul L. Prather, Department of Pharmacology and Toxicology, College of Medicine, University of Arkansas for Medical Sciences, USA) were cultured in Ham's F12 medium or Dulbecco's modified Eagle's medium (DMEM) with 10% fetal calf serum, 100 IU/mL penicillin, 100 μg/mL streptomycin and 250 or 400 μg/mL of the selection antibiotic Geneticin (G418), respectively. The cells were cultured in a humidified atmosphere with 5% CO2 at 37°C. Confluent cell layers of 175-cm^2 flasks were scraped; cells were harvested by centrifugation (800 rpm, 3 min), counted by trypan blue staining, suspended in 200 μL of 50 mM tris(hydroxymethyl)aminomethane (TRIS; pH 7.4) at 4°C and stored at −32°C until the binding experiment.\n(§2) Competitive binding experiments were performed with crude membrane homogenates obtained from hCB1-CHO or hCB2-CHO cells as described above. […] Incubations were terminated by rapid filtration through a GF-B glass fibre filter pre-incubated for 90 min at room temperature in freshly prepared 0.5% polyvinylpyrrolidone + 0.1% Tween 20 solution using a 48-well cell harvester (Brandel, Gaithersburg, MD, USA).\nThe corresponding inhibition constants (Ki) of test compounds were derived from the IC50 values using the Cheng-Prusoff equation [49]. All binding experiments were performed in triplicates, and data are given as mean values from independent experiments."}, "hCB1": {"target": "T2, hCB1 (Homo sapiens, UniProt P21554)", "T2 construct": "host or cells: CHO (hCB1-CHO), crude membrane homogenates", "T2 sequence (P21554 whole entry)": "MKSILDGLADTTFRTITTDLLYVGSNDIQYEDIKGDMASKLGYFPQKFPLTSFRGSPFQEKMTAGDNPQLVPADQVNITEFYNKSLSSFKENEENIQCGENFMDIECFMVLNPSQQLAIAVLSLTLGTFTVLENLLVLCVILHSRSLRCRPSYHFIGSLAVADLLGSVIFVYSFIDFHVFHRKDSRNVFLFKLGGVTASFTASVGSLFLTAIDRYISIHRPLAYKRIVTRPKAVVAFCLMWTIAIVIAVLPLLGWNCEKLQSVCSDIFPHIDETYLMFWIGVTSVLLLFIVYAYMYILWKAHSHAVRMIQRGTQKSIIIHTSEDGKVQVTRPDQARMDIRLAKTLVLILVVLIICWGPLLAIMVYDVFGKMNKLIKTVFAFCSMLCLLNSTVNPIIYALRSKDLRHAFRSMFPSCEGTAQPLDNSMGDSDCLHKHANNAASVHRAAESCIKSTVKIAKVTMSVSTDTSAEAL", "experiment": "Competitive [3H]CP55,940 binding on membrane homogenates of hCB1-CHO cells", "protocol": "as §1, §2\nBinding data were analysed using GraphPad Prism version 2.01 (GraphPad Software, Inc., San Diego, CA, USA) by non-linear regression to provide estimates of the half maximal inhibitory concentration (IC50) values and the […]. […] The corresponding inhibition constants (Ki) of test compounds were derived from the IC50 values using the Cheng-Prusoff equation [49]. All binding experiments were performed in triplicates, and data are given as mean values from independent experiments."}, "[1]": {"target": "T3, CB2 receptors in mouse spleen tissue (Mus musculus, UniProt P47936)", "T3 construct": "12-μm-thick coronal sections obtained from the spleens of three animals; from tissue; host or cells: spleen sections of female CD-1 mice", "T3 sequence (P47936 whole entry)": "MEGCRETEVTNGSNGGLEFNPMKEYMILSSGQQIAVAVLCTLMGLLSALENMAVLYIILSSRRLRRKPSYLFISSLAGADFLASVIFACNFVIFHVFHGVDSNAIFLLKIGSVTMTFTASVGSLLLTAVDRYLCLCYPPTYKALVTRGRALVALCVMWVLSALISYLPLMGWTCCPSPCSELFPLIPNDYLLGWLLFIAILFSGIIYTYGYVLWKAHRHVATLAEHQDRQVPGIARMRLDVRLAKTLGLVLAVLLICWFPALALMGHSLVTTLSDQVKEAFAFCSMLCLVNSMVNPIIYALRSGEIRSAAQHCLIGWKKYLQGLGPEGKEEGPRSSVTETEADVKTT", "experiment": "Autoradiographic displacement of [3H]CP55,940 on coronal mouse spleen sections", "assay_type": "binding", "conditions": "for Displacement of the specific binding of 6 nM [3H]CP55,940: mouse spleen sections, HD regions; for receptor occupancy at 1 µM: read-out: Fractional occupancy of [3H]CP55,940 binding sites calculated by Gaddum equation", "protocol": "Animal experiments were performed under procedures approved by the State of Saxony Animal Care and Use Committee and conducted in accordance with the German Law for the Protection of Animals. Female CD-1 mice (10 to 12 weeks old, 20 to 25 g), obtained from the Medizinisch-Experimentelles Zentrum der Universität Leipzig (Leipzig, Germany), were used for the experiments.\nThe animals were anesthetized and sacrificed, and their spleens were rapidly removed and frozen in isopentane at −35°C. The spleens were brought to −15°C in a cryostat (Microm International GmbH, Walldorf, Germany), and a series of 12-μm-thick coronal sections obtained from the spleens of three animals were collected in parallel on microscopic glass slides. The sections were dried at room temperature and stored at −35°C until they were processed for receptor binding autoradiography.\nFor autoradiographic experiments, the slides were brought to room temperature, dried in a stream of cold air, pre-incubated in a binding buffer (50 mM TRIS (pH 7.4) at 21°C, 5% BSA) for 15 min at room temperature and dried again in a stream of cold air. […] Samples were washed twice for 30 min at 4°C in 50 mM TRIS (pH 7.4) at 4°C, containing 1% BSA, dipped briefly in ice-cold deionized water (5 s), dried in a stream of cold air and exposed along with [^3H] standards (Amersham/GE Healthcare, Piscataway, NJ, USA) for 14 days to [^3H]-sensitive screen plates (Fuji Photo Film, Co. Ltd., Tokyo, Japan).\nThe image plates were analysed using a BAS-1800II system bioimaging analyser (Fuji Photo Film, Co. Ltd., Tokyo, Japan). Scan data were visualized and processed by computer-assisted microdensitometry (Aida version 2.31, Raytest Isotopenmessgeräte GmbH, Straubenhardt, Germany). Irregular regions of interest (ROIs) were drawn on selected areas of the spleen labelled as red pulp (low-density binding) and white pulp (high-density binding) according to Lynn and Herkenham and Massi et al.."}, "[2]": {"conditions": "read-out: Affinity (Ki) towards hCB2"}, "[3]": {"conditions": "read-out: Affinity (Ki) towards hCB1"}}, "note": "Where two headings read alike, the source gives them in different places.", "data": [{"compound": "O=C(CCc1nc(-c2ccc(F)nc2)no1)Nc1cnc2ccccc2c1", "note": "[Compound 2b, 3-(3-(6-Fluoropyridin-3-yl)-1,2,4-oxadiazol-5-yl)-N-(quinolin-3-yl)propanamide]", "values": [{"measurement": "Binding to hCB2 in words", "setting": "hCB2", "result": "low affinity"}, {"measurement": "Ki", "setting": "hCB2; [2]", "result": 2290, "unit": "nM"}, {"measurement": "Binding to hCB1 in words", "setting": "hCB1; hCB1-CHO", "result": "could not be observed"}]}, {"compound": "SR144528", "values": [{"measurement": "Displacement of the specific binding of 6 nM [3H]CP55,940", "setting": "[1]; 1 μM compound", "result": 78, "unit": "%"}]}, {"compound": "N#Cc1cc(F)ccc1-c1noc(CCC(=O)Nc2cnc3ccccc3c2)n1", "note": "[Compound 2a, 3-(3-(2-Cyano-4-fluorophenyl)-1,2,4-oxadiazol-5-yl)-N-(quinolin-3-yl)propanamide]", "values": [{"measurement": "Fold lower hCB2 affinity", "setting": "hCB2; in comparison to 6a", "result": "approximately 100 fold"}, {"measurement": "Ki", "setting": "hCB2; [2]", "result": 722, "unit": "nM"}, {"measurement": "Binding to hCB1 in words", "setting": "hCB1; hCB1-CHO", "result": "could not be observed"}]}, {"compound": "CCn1c2ccccc2c2cc(NC(=O)CCc3nc(-c4ccc(F)cc4F)no3)ccc21", "note": "[Compound 6h, 3-(3-(2,4-Difluorophenyl)-1,2,4-oxadiazol-5-yl)-N-(9-ethyl-9H-carbazol-3-yl)propanamide]", "values": [{"measurement": "receptor occupancy at 1 µM", "setting": "[1]", "result": 83, "unit": "%"}, {"measurement": "Ki", "setting": "hCB2", "result": 39.4, "unit": "nM"}, {"measurement": "Selectivity over hCB1", "setting": "hCB2", "result": "more than 1,000 fold"}, {"measurement": "Ki", "setting": "hCB1; hCB1-CHO, read-out: Ki hCB1", "result": "> 1000", "unit": "nM"}]}, {"compound": "O=C(CCc1nc(-c2ccc(F)cc2F)no1)Nc1cn(Cc2ccccc2)c2ccccc12", "note": "[Compound 7h, 3-(3-(2,4-Difluorophenyl)-1,2,4-oxadiazol-5-yl)-N-(1-benzyl-1H-indol-3-yl)-propanamide]", "values": [{"measurement": "Binding to hCB2 in words", "setting": "hCB2", "result": "lost"}, {"measurement": "Ki", "setting": "hCB2; [2]", "result": "> 100000", "unit": "nM"}, {"measurement": "Binding to hCB1 in words", "setting": "hCB1; hCB1-CHO", "result": "Weak affinity"}, {"measurement": "Ki", "setting": "hCB1; [3]", "result": 6010, "unit": "nM"}]}, {"compound": "CCCCCCC(C)(C)c1ccc([C@@H]2C[C@H](O)CC[C@H]2CCCO)c(O)c1", "note": "[^3H]CP55,940]", "values": [{"measurement": "Density of specific binding sites", "setting": "[1]; 6 nM [3H]CP55,940, mouse spleen", "result": "150 ± 25", "unit": "fmol/mg wet weight"}, {"measurement": "Specific binding as share of total binding", "setting": "[1]; mouse spleen autoradiography", "result": "approximately 90%"}]}, {"compound": "CCn1c2ccccc2c2cc(NC(=O)CCc3nc(-c4ccc(F)nc4)no3)ccc21", "note": "[Compound 6b, 3-(3-(6-Fluoropyridin-3-yl)-1,2,4-oxadiazol-5-yl)-N-(9-ethyl-9H-carbazol-3-yl)propanamide]", "values": [{"measurement": "Binding to hCB2 in words", "setting": "hCB2", "result": "low affinity"}, {"measurement": "Selectivity, pKi (CB2) – pKi (CB1)", "setting": "hCB2", "result": 1.06}, {"measurement": "Ki", "setting": "hCB2; [2]", "result": 135, "unit": "nM"}, {"measurement": "Ki", "setting": "hCB1; [3]", "result": 1560, "unit": "nM"}]}, {"compound": "CCn1c2ccccc2c2cc(NC(=O)CCc3nc(-c4ccc([N+](=O)[O-])cc4Br)no3)ccc21", "note": "[Compound 6g, 3-(3-(2-Bromo-4-nitrophenyl)-1,2,4-oxadiazol-5-yl)-N-(9-ethyl-9H-carbazol-3-yl)propanamide]", "values": [{"measurement": "Ki", "setting": "hCB2", "result": 2.38, "unit": "nM"}, {"measurement": "Selectivity, pKi (CB2) – pKi (CB1)", "setting": "hCB2", "result": 2.22}, {"measurement": "Ki", "setting": "hCB1; [3]", "result": 397, "unit": "nM"}]}, {"compound": "O=C(CCc1nc(-c2ccc(Br)nc2)no1)Nc1cnc2ccccc2c1", "note": "[Compound 2c, 3-(3-(6-Bromopyridin-3-yl)-1,2,4-oxadiazol-5-yl)-N-(quinolin-3-yl)propanamide]", "values": [{"measurement": "Binding to hCB2 in words", "setting": "hCB2", "result": "low affinity"}, {"measurement": "Ki", "setting": "hCB2; [2]", "result": "> 100000", "unit": "nM"}, {"measurement": "Binding to hCB1 in words", "setting": "hCB1; hCB1-CHO", "result": "could not be observed"}]}, {"compound": "CCn1c2ccccc2c2cc(NC(=O)CCc3nc(-c4ccc([N+](=O)[O-])cc4F)no3)ccc21", "note": "[Compound 6d, 3-(3-(2-Fluoro-4-nitrophenyl)-1,2,4-oxadiazol-5-yl)-N-(9-ethyl-9H-carbazol-3-yl)propanamide]", "values": [{"measurement": "Ki", "setting": "hCB2", "result": 12.5, "unit": "nM"}, {"measurement": "Selectivity, pKi (CB2) – pKi (CB1)", "setting": "hCB2", "result": 2.78}, {"measurement": "Ki", "setting": "hCB1; [3]", "result": 7470, "unit": "nM"}]}, {"compound": "Cc1c(C(=O)NN2CCCCC2)nn(-c2ccc(Cl)cc2Cl)c1-c1ccc(Cl)cc1", "note": "[SR141716A]", "values": [{"measurement": "Specific CP55,940 binding remaining", "setting": "[1]; 1 μM compound, 6 nM [3H]CP55,940, mouse spleen", "result": 94, "unit": "%"}, {"measurement": "Displacement of the specific binding of 6 nM [3H]CP55,940", "setting": "[1]; 1 μM compound", "result": "nearly no displacement"}]}, {"compound": "CCn1c2ccccc2c2cc(NC(=O)CCc3nc(-c4ccc(F)cc4Br)no3)ccc21", "note": "[Compound 6e, 3-(3-(2-Bromo-4-fluorophenyl)-1,2,4-oxadiazol-5-yl)-N-(9-ethyl-9H-carbazol-3-yl)propanamide]", "values": [{"measurement": "receptor occupancy at 1 µM", "setting": "[1]", "result": 97, "unit": "%"}, {"measurement": "Selectivity over hCB1", "setting": "hCB2", "result": "more than 1,000 fold"}, {"measurement": "Ki", "setting": "hCB1; hCB1-CHO, read-out: Ki hCB1", "result": "> 1000", "unit": "nM"}]}]}
